Test system: Plasmodium berghei
Assay: Luciferase/luciferin-expressing antifolate-resistant parasites were used to infect a culture of HepG2 cells that were pre-incubated with compounds. Infected hepatocytes emit light due to the luciferase reaction. Assay results are presented as the percent inhibition of light emission compared to control. […]
Type: functional
Details: sporozoite; for IC50: read-out: LUCIFERASE INFECTION ASSAY - IC50; for IC90: read-out: LUCIFERASE INFECTION ASSAY - IC90

Compound	IC50 [µM]	IC90 [µM]
Cc1[nH]c2ccc(C(=O)OC(C)C(=O)NCc3ccccc3)cc2c1C (stereo not drawn)	3.57	8.96
O=C(OCC(=O)N(CCc1ccccc1)Cc1ccccc1)c1ccccc1NCCO	> 10	> 10
CC(C)CN(C(=O)CN(C)C(=O)c1ccco1)c1c(N)n(CC(C)C)c(=O)[nH]c1=O	> 10	> 10
CCCCn1c(N)c(N(CC(C)C)C(=O)c2cc(Br)c(Br)s2)c(=O)[nH]c1=O	8.31	9.14
CC(C)=CC(=O)Nc1scc(-c2ccccc2)c1C(=O)OCC(=O)Nc1cc(C)on1	> 10	> 10
O=C(CN1C(=O)CCOc2ccccc21)N1CCN(C(=O)C2COc3ccccc3O2)CC1 (stereo not drawn)	3.76	8.99
COc1ccccc1-c1noc(COC(=O)c2c[nH]nc2-c2ccccc2)n1	> 10	> 10
Cc1ccc(CN(C)C(=O)CSc2nnc(-c3ccc(C(C)(C)C)cc3)o2)c(C)c1	> 10	> 10
CCOc1cc(/C=C/C(=O)c2ccc(N(C)C)cc2)cc(Br)c1OCC(=O)N(C)C	2.32	4.93
CCCCN(C(=O)c1csc(-c2ccc(C(C)C)cc2)n1)c1c(N)n(CCC)c(=O)[nH]c1=O	> 10	> 10
O=C(NNC(=O)c1ccccc1Nc1ccccc1)c1ccccc1O	8.81	9.6
CCOc1ccc(OCC)c(NC(=O)/C=C/c2c(C)nn(-c3ccccc3)c2C)c1	9.19	> 10
O=C(Cc1csc(-c2ccc(C(F)(F)F)cc2)n1)NCc1cnn(-c2ccccc2)c1	> 10	> 10
CCN(CC)S(=O)(=O)c1ccc(O)c(NC(=O)c2ccc(SC(F)(F)F)cc2)c1	> 10	> 10
COc1cccc(/C=C/C(=O)Nc2nc3c(s2)CN(C(=O)OC(C)(C)C)CC3)c1	0.387	0.475
CCOc1cc(/C=C/C(=O)c2ccc(F)c(Br)c2)cc(Cl)c1OCC(=O)N(C)C	> 10	> 10
CCOC(=O)c1c(NC(=O)CN(CC(C)C)C2CC2)sc(C(=O)Nc2ccc(C)cc2C)c1C	4.24	5.26
CCc1ccc(N(C(=O)C2CCN(C(=O)C(C)(C)C)CC2)c2nc3ccccc3s2)cc1	> 10	> 10
COc1ccc(-c2nc(C)c(C(=O)NCc3ccc(-n4cccn4)nc3)s2)cc1	> 10	> 10
CCCN(Cc1nc(=O)c2ccc(Cl)cc2[nH]1)C(=O)C1CCN(c2nc3ccccc3o2)CC1	> 10	> 10
CC(C)c1cccc(NC(=O)COc2ccc(S(N)(=O)=O)cc2[N+](=O)[O-])c1	> 10	> 10
N#Cc1ccc(NC(=O)c2cnn(Cc3ccccc3Cl)c2)cc1	> 10	> 10
O=C(OCc1cn(-c2ccccc2)nc1-c1ccccc1)c1ccc(N2CCOCC2)nc1	> 10	> 10
CC(C)CNC(=O)CN1CCN(c2nc(-c3cccs3)nc3sc4c(c23)CCC4)CC1	3.4	3.94
COc1ccc(/C=C/C(=O)c2cc(F)c(Cl)cc2Cl)c(OC)c1OC	9.74	> 10
N#CCCn1cc(/C=C(\C#N)c2nc3ccccc3[nH]2)c(-c2ccccc2)n1	> 10	> 10
CCS(=O)(=O)c1ccc(O)c(NC(=O)Cc2csc(-c3ccsc3)n2)c1	> 10	> 10

Compound	IC50 [µM]	IC90 [µM]
CSc1ccc(N2CC(C(=O)N(C)C(C)c3cccc([N+](=O)[O-])c3)CC2=O)cc1 (stereo not drawn)	> 10	> 10
COCCCn1c(C)cc(C(=O)CSc2nc(C)nc3c2c(=O)n(C)c(=O)n3CC(C)C)c1C	> 10	> 10
CNC(=O)c1ccc(/C=C/C(=O)c2ccc3cccc4c3c2CC4)cc1	> 10	> 10
Cc1cccc2sc(N(Cc3ccccc3)C(=O)C3CCN(C(=O)C(C)(C)C)CC3)nc12	> 10	> 10
C/C=C/c1ccc(OCC(O)Cn2c(=O)c(-c3ccccc3)[n+]([O-])c3ccccc32)c(OC)c1 (stereo not drawn)	1.21	9.19
CC(Sc1nnc(/C=C/c2ccc(F)cc2)[nH]1)C(=O)NC(C)(C)C (stereo not drawn)	2.09	5.34
Cc1nn(-c2ccccc2)nc1C(=O)Nc1nc(CN2CCCCCC2)cs1	> 10	> 10
CC(C)C(Nc1ccc(S(=O)(=O)N2CCOCC2)cc1[N+](=O)[O-])c1nc2ccccc2[nH]1 (stereo not drawn)	9.46	> 10
CCOC(=O)c1nc(N(CCc2ccccc2)C(=O)c2cnc3c(cnn3C(C)C)c2)sc1C	> 10	> 10
CCc1noc(C)c1C(=O)OCc1csc(N(C(C)=O)c2ccccc2)n1	> 10	> 10
CCCn1c(N)c(N2CCCCC2)c(=O)n(Cc2nc(N)nc(Nc3ccc(C)cc3)n2)c1=O	3.72	4.61
O=C(CN1c2cccc3cccc(c23)S1(=O)=O)Nc1ccc(-c2nc3ccccc3[nH]2)cc1	> 10	> 10
CCCn1c(N)c(N2CCCCC2)c(=O)n(Cc2nc(N)nc(Nc3ccccc3)n2)c1=O	2.17	3.51
COc1cc(OC)c(C(=O)/C=C/c2cccnc2)cc1Cl	3.3	3.76
COc1cc(NC(=O)COc2ccc3[nH]c4ccccc4c(=O)c3c2)c(OC)cc1Cl	0.246	2.11
CCC1c2ccsc2CCN1C(=O)C1CCN(S(=O)(=O)c2ccc(Cl)c([N+](=O)[O-])c2)CC1 (stereo not drawn)	> 10	> 10
COC(=O)c1occc1/C=C/C(=O)c1ccc(OCc2ccccc2)cc1	> 10	> 10
Cc1ccc(-n2c(=O)c3ccccc3n3c(SCc4nnnn4C4CC4)nnc23)c(C)c1	> 10	> 10
CC(C)(Oc1ccc(Cl)cc1)C(=O)Nc1ccc(F)c(S(=O)(=O)N2CCOCC2)c1	> 10	> 10
CCOC(=O)/C(=C\c1cccc(Br)c1)C1=Nn2c(nnc2-c2ccc(OC)cc2)SC1	> 10	> 10
Cc1nc(=O)c(CCC(=O)Nc2ncc(Cc3cccc(C)c3Cl)s2)c(C)[nH]1	8.8	> 10
CCCN(Cc1nc(-c2ccccc2)c2ccccc2n1)Cc1nc2ccsc2c(=O)[nH]1	> 10	> 10
CC(C)CCn1c(SCC(=O)N2CCc3ccccc3C2)nc2ccccc2c1=O	> 10	> 10
Cc1nn(Cc2ccc(F)cc2)c2sc(C(=O)NCc3nnc4ccc(C(F)(F)F)cn34)cc12	> 10	> 10
C=CCn1c(-c2ccoc2C)nn(CN(C)Cc2nc3ccccc3s2)c1=S	> 10	> 10
Cc1nn(-c2ccccc2)nc1C(=O)NCc1ccccc1-c1ccc(CN(C)C)cc1	3.7	5.83
CN(C1CCCCCC1)S(=O)(=O)c1ccc(-n2ncc(Cl)c(Cl)c2=O)cc1	3.55	5.25

Compound	IC50 [µM]	IC90 [µM]
O=C(NC1CC1)c1cccc(NC(C(=O)Nc2cc(C(F)(F)F)ccc2Cl)c2ccccc2)c1 (stereo not drawn)	9.94	> 10
COc1ccc(S(=O)(=O)N2CCc3ccccc32)cc1C(=O)NOCc1ccccc1	> 10	> 10
COc1ccc(Nc2nnc(SC(C)C(=O)Nc3sccc3C(N)=O)s2)cc1 (stereo not drawn)	> 10	> 10
CCCCn1c(N)c(N(CC(C)C)C(=O)CCc2ncc(-c3ccc(C)cc3)o2)c(=O)[nH]c1=O	> 10	> 10
O=C(NNC1c2ccccc2-c2ccccc21)c1ccccc1	8.58	> 10
Cc1ccc(C(C)C)cc1OS(=O)(=O)c1ccc(S(=O)(=O)N(C)C)cc1[N+](=O)[O-]	> 10	> 10
COc1ccc(-c2nn(-c3ccccc3)cc2/C=C/C(=O)OCc2ncc(Cl)n2C)cc1OC	> 10	> 10
Cc1cc(C)c(S(=O)(=O)N2CCN(C(=O)/C(=C/c3cccc(F)c3)n3nnnc3C)CC2)c(C)c1	1.61	3.73
CCC(C)c1ccccc1OS(=O)(=O)c1ccc2c(c1)NC(=O)CO2 (stereo not drawn)	> 10	> 10
O=C1/C(=C/c2ccc(SC(F)(F)F)cc2)SC(=S)N1CCN1CCOCC1	> 10	> 10
Cc1ccc(-n2nc(C)c(/C=C3\SC(=S)N(c4ccc(C(=O)O)cc4)C3=O)c2Cl)c(C)c1	9.42	> 10
Cc1nn(-c2ccccc2)c(Cl)c1CSc1nnc(/C=C/c2ccc(F)cc2)[nH]1	> 10	> 10
CC(C)C(NC(=O)c1ccc(C(C)(C)C)cc1)C(=O)Nc1ncc(Cc2ccc(Cl)cc2)s1 (stereo not drawn)	> 10	> 10
CC(c1nc(N)nc(N(C)C)n1)N(C)Cc1ccc(-c2ccc(Br)cc2)o1 (stereo not drawn)	> 10	> 10
CCN(CC)S(=O)(=O)c1ccc(/C=C/C(=O)N2CC=C(c3ccccc3)CC2)cc1	> 10	> 10
O=C(CSc1nc2ccccc2c(=O)n1-c1ccccc1F)N1CCSC1c1ccccc1F (stereo not drawn)	> 10	> 10
O=C(NC1CC1)c1ccc(CN(C2CC2)S(=O)(=O)c2ccccc2[N+](=O)[O-])cc1	3.41	3.74
c1ccc(-c2cn3nc(NCc4ccccc4CN4CCOCC4)sc3n2)cc1	1.28	> 10
CC1Cc2cc(C3=NNC(=Nc4ccccc4[N+](=O)[O-])SC3)ccc2N1S(C)(=O)=O (stereo not drawn)	5.32	> 10
N#CCCN(Cc1ccco1)C(=O)CSc1nc2ccccc2c(=O)n1-c1cccc(Cl)c1	7.35	> 10
CCCCCCc1ccc(-c2csc(NC(=O)CSc3nnc(C(F)(F)F)n3C)n2)cc1	> 10	> 10
CC(C)(C)c1ccc(NC(=O)Cc2csc(NC(=O)C3CC3)n2)cc1	> 10	> 10
Cc1ccc(OCc2nc(C(=O)Nc3cccc(S(=O)(=O)NC(C)(C)C)c3)cs2)cc1	> 10	> 10
CCOc1cc2c(cc1NC(=O)CCCCCn1c(=S)[nH]c3ccccc3c1=O)OC(C)C2 (stereo not drawn)	> 10	> 10
COc1cccc2cc(C(=O)/C=C/c3c(C)nc4sc(C)cn34)oc12	> 10	> 10

— ChEMBL document CHEMBL4483862, “Open-source discovery of chemical leads for next-generation chemoprotective antimalarials” (2018)
